The assay addresses T1, Slc26a7 (Mus musculus, UniProt Q8R2Z3).
T1 construct: native full-length channel in Reissner's membrane epithelial cells (basolateral membrane); Slc26a7 knockout mice as control
T1 sequence (Q8R2Z3 1-656): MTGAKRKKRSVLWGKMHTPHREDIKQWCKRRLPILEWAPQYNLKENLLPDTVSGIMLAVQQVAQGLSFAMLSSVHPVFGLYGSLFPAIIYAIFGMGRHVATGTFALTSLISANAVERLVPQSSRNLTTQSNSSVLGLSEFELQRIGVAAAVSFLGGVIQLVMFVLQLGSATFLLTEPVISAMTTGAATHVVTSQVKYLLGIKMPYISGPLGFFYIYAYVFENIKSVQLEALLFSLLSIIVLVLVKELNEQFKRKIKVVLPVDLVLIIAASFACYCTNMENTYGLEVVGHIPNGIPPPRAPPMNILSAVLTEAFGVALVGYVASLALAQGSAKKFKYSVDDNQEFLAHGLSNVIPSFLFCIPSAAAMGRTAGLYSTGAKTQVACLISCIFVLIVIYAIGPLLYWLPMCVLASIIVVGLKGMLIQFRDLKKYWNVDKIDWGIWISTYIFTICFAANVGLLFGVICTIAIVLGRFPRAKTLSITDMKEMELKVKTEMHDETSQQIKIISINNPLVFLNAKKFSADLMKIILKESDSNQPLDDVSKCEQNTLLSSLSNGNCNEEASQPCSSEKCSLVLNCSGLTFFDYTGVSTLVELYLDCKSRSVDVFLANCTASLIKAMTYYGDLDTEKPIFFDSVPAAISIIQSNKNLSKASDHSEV
Description: whole-cell patch clamp, wild-type versus Slc26a7 knockout native epithelial cells. It is filed as cell-based. The settings on record: NMDG-Cl pipette, NO3-rich versus Cl-rich bath, +80 mV, pH 7.3, 37 °C; native cells with other anion channels present. (In patch-clamp work, channel activity is measured electrically.)

`O=[N+]([O-])O` [NO3 ^−]: the “whole-cell patch clamp, wild-type versus Slc26a7 knockout native epithelial cell” value is reported as “elevated NO3 ^− current in wild-type cells being mediated by the Slc26a7 Cl^− channel”.
